Experimental data: PubChem BioAssay AID192 (DTP/NCI, 2004)
Where “and” joins values, the source holds several entries; their conditions need not be identical. Equal values may be shown once. Inconclusive results and toxic doses are left out. Rule for the calls: active = survival T/C of 150% or more; inactive = T/C below 125% in these data. Numbered stars: 1 amine (or outer) side, 2 acyl side, 3 side chain; on linkers, the order of the positions; unused ones are H or OH. Peptide text beside a SMILES is read from it. γGlu = O=C(O)[CH](CCC(=O)[*:2])N[*:1]

Test system: BDF1 mice, B16 melanoma ip, median survival T/C
Experiment: NCI In Vivo Anticancer Drug Screen. Data for tumor model B16 Melanoma (intraperitoneal) in B6D2F1 (BDF1) mice
Details: endpoint: median survival time, higher = longer survival
Procedure, shortened: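 Tumor-bearing mice received test compound or vehicle. Survival or tumor size was then measured in both groups. The treated-group figure was divided by the control-group figure.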

[1] = dose: 100.0 mg/kg/injection, schedule: Q01DX009 (ip), vehicle: Klucel (hydroxypropylcellulose) (HPC)
[2] = dose: 200.0 mg/kg/injection, schedule: Q01DX009 (ip), vehicle: Klucel (hydroxypropylcellulose) (HPC)
[3] = dose: 400.0 mg/kg/injection, schedule: Q01DX009 (ip), vehicle: Klucel (hydroxypropylcellulose) (HPC)
[4] = dose: 50.0 mg/kg/injection, schedule: Q01DX009 (ip), vehicle: saline with Tween-80
[5] = dose: 100.0 mg/kg/injection, schedule: Q01DX009 (ip), vehicle: saline with Tween-80
[6] = dose: 3.12 mg/kg/injection, schedule: Q01DX009 (ip), vehicle: Klucel (hydroxypropylcellulose) (HPC)
[7] = dose: 6.25 mg/kg/injection, schedule: Q01DX009 (ip), vehicle: Klucel (hydroxypropylcellulose) (HPC)
[8] = dose: 25.0 mg/kg/injection, schedule: Q01DX009 (ip), vehicle: Klucel (hydroxypropylcellulose) (HPC)
[9] = dose: 50.0 mg/kg/injection, schedule: Q01DX009 (ip), vehicle: Klucel (hydroxypropylcellulose) (HPC)
[10] = dose: 12.5 mg/kg/injection, schedule: Q01DX009 (ip), vehicle: Klucel (hydroxypropylcellulose) (HPC)

Measured: T/C

NCCCC(NN)C(=O)O (configuration not stated)
inactive: dose: 7.5 mg/kg/injection, schedule: Q01DX009 (ip), vehicle: saline 109 % of control | dose: 15.0 mg/kg/injection, schedule: Q01DX009 (ip), vehicle: saline 111 % of control | dose: 30.0 mg/kg/injection, schedule: Q01DX009 (ip), vehicle: saline 104 % of control

C=C1C(=O)OC2CC(C)C3C4OC4C(O)C3(C)C(O)C12 (configuration not stated)
inactive: dose: 9.38 mg/kg/injection, schedule: Q01DX009 (ip), vehicle: saline 94 % of control | dose: 18.75 mg/kg/injection, schedule: Q01DX009 (ip), vehicle: saline 94 % of control | dose: 37.5 mg/kg/injection, schedule: Q01DX009 (ip), vehicle: saline 103 % of control

COc1ccc(COC(=O)CN2C(=O)c3ccccc3C2=O)cc1
inactive: [1] 105 % of control | [2] 107 % of control | [3] 100 % of control

Cc1cc2oc(C)[n+](Cc3ccccc3)c2cc1C
inactive: [4] 111 % of control | [5] 98 % of control

CC1CC(=O)c2ccccc2N1S(C)(=O)=O (configuration not stated)
inactive: dose: 100.0 mg/kg/injection, schedule: Q04DX003 (ip), vehicle: Klucel (hydroxypropylcellulose) (HPC) 102 % of control | dose: 200.0 mg/kg/injection, schedule: Q04DX003 (ip), vehicle: Klucel (hydroxypropylcellulose) (HPC) 100 % of control | dose: 400.0 mg/kg/injection, schedule: Q04DX003 (ip), vehicle: Klucel (hydroxypropylcellulose) (HPC) 95 % of control

COc1cc(C(O)C(Cl)(Cl)Cl)ccc1O (configuration not stated)
inactive: dose: 100.0 mg/kg/injection, schedule: Q01DX009 (ip), vehicle: other 94 % of control | dose: 200.0 mg/kg/injection, schedule: Q01DX009 (ip), vehicle: other 91 % of control

CC[C@@H](C(=O)[C@@H](C)[C@@H](O)[C@H](C)CCc1ccc(C)c(O)c1C(=O)O)[C@H]1O[C@](CC)([C@H]2CC[C@](O)(CC)[C@H](C)O2)C[C@@H]1C
inactive: dose: 1.56 mg/kg/injection, schedule: Q01DX009 (ip), vehicle: Klucel (hydroxypropylcellulose) (HPC) 111 % of control | [6] 102 % of control | [7] 111 % of control

CCOc1nsc(OCC)n1
inactive: dose: 12.5 mg/kg/injection, schedule: Q04DX003 (ip), vehicle: distilled water + Tween-80 103 % of control | dose: 25.0 mg/kg/injection, schedule: Q04DX003 (ip), vehicle: distilled water + Tween-80 96 % of control | dose: 50.0 mg/kg/injection, schedule: Q04DX003 (ip), vehicle: distilled water + Tween-80 99 % of control | dose: 100.0 mg/kg/injection, schedule: Q04DX003 (ip), vehicle: distilled water + Tween-80 98 % of control

CC(C)NC(=O)N(c1ccccc1)c1ccccc1
inactive: dose: 75.0 mg/kg/injection, schedule: Q01DX009 (ip), vehicle: gum acacia 99 % of control | dose: 150.0 mg/kg/injection, schedule: Q01DX009 (ip), vehicle: gum acacia 103 % of control | dose: 300.0 mg/kg/injection, schedule: Q01DX009 (ip), vehicle: gum acacia 99 % of control

O=C1CC(c2ccc(O)cc2)CC(=O)C1C(C1CC=CCC1)N(CCCl)CCCl (configuration not stated)
inactive: [8] 88 % of control | [9] 95 % of control | [1] 90 % of control | [2] 92 % of control | [3] 97 % of control

COC(=O)C1(N)CCCC1
inactive: dose: 6.25 mg/kg/injection, schedule: Q01DX009 (ip), vehicle: saline 105 % of control and 110 % of control | dose: 12.5 mg/kg/injection, schedule: Q01DX009 (ip), vehicle: saline 108 % of control and 109 % of control and 122 % of control | dose: 25.0 mg/kg/injection, schedule: Q01DX009 (ip), vehicle: saline 121 % of control and 123 % of control

[Cl][Pt+2][Cl].[NH-]C1CCCCC1.[NH-]C1CCCCC1
inactive: [7] 105 % of control | [10] 110 % of control | [8] 92 % of control and 117 % of control | [9] 97 % of control

CCN(CC)CCCC(C)NS(=O)(=O)c1cccc2c(N(C)C)cccc12 (configuration not stated)
inactive: dose: 6.25 mg/kg/injection, schedule: Q01DX009 (ip), vehicle: water 104 % of control | dose: 12.5 mg/kg/injection, schedule: Q01DX009 (ip), vehicle: water 104 % of control | dose: 25.0 mg/kg/injection, schedule: Q01DX009 (ip), vehicle: water 97 % of control | dose: 50.0 mg/kg/injection, schedule: Q01DX009 (ip), vehicle: water 98 % of control | dose: 100.0 mg/kg/injection, schedule: Q01DX009 (ip), vehicle: water 92 % of control

Cc1c2ccccc2c(C)c2c1ccc1ccccc12
inactive: dose: 2.0 mg/kg/injection, schedule: Q01DX009 (ip), vehicle: saline with Tween-80 100 % of control | dose: 4.0 mg/kg/injection, schedule: Q01DX009 (ip), vehicle: saline with Tween-80 108 % of control | dose: 16.0 mg/kg/injection, schedule: Q01DX009 (ip), vehicle: saline with Tween-80 108 % of control

NOCc1cccc(CON)c1
inactive: dose: 12.5 mg/kg/injection, schedule: Q04DX003 (ip), vehicle: saline 123 % of control | dose: 25.0 mg/kg/injection, schedule: Q04DX003 (ip), vehicle: saline 118 % of control | dose: 50.0 mg/kg/injection, schedule: Q04DX003 (ip), vehicle: saline 115 % of control

COc1ccc(C(=O)c2cc(OC)c(OC)c(OC)c2)cc1OC
inactive: [1] 110 % of control | [5] 111 % of control | [2] 105 % of control | dose: 200.0 mg/kg/injection, schedule: Q01DX009 (ip), vehicle: saline with Tween-80 104 % of control | [3] 115 % of control | dose: 400.0 mg/kg/injection, schedule: Q01DX009 (ip), vehicle: saline with Tween-80 102 % of control

Cc1cc(O)c(N=Nc2ccc(C(=O)O)cc2)cc1C
inactive: dose: 12.5 mg/kg/injection, schedule: Q01DX009 (ip), vehicle: suspension in saline 109 % of control | dose: 25.0 mg/kg/injection, schedule: Q01DX009 (ip), vehicle: suspension in saline 106 % of control | dose: 50.0 mg/kg/injection, schedule: Q01DX009 (ip), vehicle: suspension in saline 109 % of control | dose: 100.0 mg/kg/injection, schedule: Q01DX009 (ip), vehicle: suspension in saline 90 % of control | dose: 200.0 mg/kg/injection, schedule: Q01DX009 (ip), vehicle: suspension in saline 87 % of control

NC(CCC(=O)NC(CCC(=O)O)C(=O)NC(CCC(=O)O)C(=O)O)C(=O)O (stereo not drawn) (γGlu-Glu-Glu-OH; configuration not given here)
inactive: dose: 50.0 mg/kg/injection, schedule: Q01DX009 (ip), vehicle: saline 92 % of control | dose: 100.0 mg/kg/injection, schedule: Q01DX009 (ip), vehicle: saline 96 % of control | dose: 200.0 mg/kg/injection, schedule: Q01DX009 (ip), vehicle: saline 89 % of control

Oc1ccc(/C=N/NC(=S)NN2CCOCC2)nc1
inactive: [6] 104 % of control | [7] 103 % of control | [10] 104 % of control | [8] 108 % of control

CC(C)(C)OC(=O)NC(Cc1ccc(OCc2ccccc2)cc1)C(=O)O (configuration not stated)
inactive: dose: 6.25 mg/kg/injection, schedule: Q01DX009 (ip), vehicle: saline with Tween-80 104 % of control | dose: 12.5 mg/kg/injection, schedule: Q01DX009 (ip), vehicle: saline with Tween-80 97 % of control | dose: 25.0 mg/kg/injection, schedule: Q01DX009 (ip), vehicle: saline with Tween-80 96 % of control | [4] 95 % of control | [5] 87 % of control
